For the assay, the system named is HIV-1. In words: IC50 determination of an anti-viral (Table 3). It counts as cell-based. The following applies: Human immunodeficiency virus 1.

`CCCCC#CCSc1ccccc1OCCCC` [BPHS] registered an IC50 of 40 µM. In other words, the double-digit micromolar range.

One may read the IC50 as the concentration that inhibits the measured activity by half.

The record behind these values is EP1263429B1, “ANTIVIRAL THERAPY” (Universiteit Utrecht, priority 2000, dated 2001).
